Consider four molecules from paper PMC4286029 (Inflammation Research, 2014).

The ED50 is the midpoint of the dose-response relation. A higher ED50 goes with weaker potency.

Assay [1] concerns rat collagen-induced arthritis model. Briefly: Collagen-induced arthritis in rats. In kind it is in vivo, Lewis rats. The following applies: MTX 0.3 mg/kg; for effect on paw swelling / arthritis symptoms, therapeutic administration: oral once daily from day 15, JTE-052 0.1, 1, 10 mg/kg. Here is the method:
CIA was induced in rats as previously described with some modifications. Briefly, type II collagen (Collagen Research Center, Saitama, Japan) was dissolved in 0.01 M acetic acid at 2 mg/mL, and the solution was emulsified in an equal volume of Freund’s incomplete adjuvant (Difco Laboratories, Detroit, MI). Lewis rats were immunized with 1 mL of the emulsion (1 mg of type II collagen) via ten intradermal injections on the back under anesthesia. The rats were then challenged with 0.2 mL of the emulsion injected into the base of the tail on day 8 under anesthesia. The test drugs were given orally once daily from day 1 to day 21 (preventive administration) or from day 15 to day 28 (therapeutic administration). After arthritis induction, the hind paw volume was measured by a water displacement method using a plethysmometer (Muromachi Kikai Co. Ltd., Tokyo, Japan). On day 22 or day 29, the rats were euthanized, and their hind paws were excised and X-rayed or processed for histological evaluation. Radiographs of the right hindlimbs were taken using a microfocal cone-beam X-ray CT scanner (MCT-CB100MF; Hitachi Medical Corporation, Tokyo, Japan). The severity of bone destruction was scored on a 3-point scale ranging from 0 to 2 for the following five joints: second metatarsal—second intertarsal joint, third metatarsal—third intertarsal joint, talus—central intertarsal joint, calcaneus—fourth intertarsal joint, and astragalo—tibial joint. For histological analysis, the formalin-fixed left hindlimbs were sectioned and stained with hematoxylin and eosin. The histology of the tarsal joints was evaluated by assessing the following parameters defined in the preliminary examination: inflammatory cell infiltration, synovial cell hyperplasia, cartilage destruction, and bone destruction. The severity of each histological change was scored on a 5-point scale ranging from 0 to 4. (Score 0: normal; Score 1: minimal, solitary (and very small) lesion; Score 2: slight, focal (and small) lesion; Score 3: moderate, scattered lesion; and Score 4: severe, extensive lesion).
. The hind paw volume (a) and body weight (b) were measured periodically. Images of hematoxylin and eosin staining (c) and radiographs of hindlimbs (e) are shown. Histological change (d) and radiographical change (f) were scored. The results are expressed as mean ± SD. ^# p < 0.05, ^## p < 0.01, versus vehicle by the Steel test
. The hind paw volume (a) and body weight (b) were measured periodically. Images of hematoxylin and eosin staining (c) and radiographs of hindlimbs (e) are shown. Histological change (d) and radiographical change (f) were scored. The results are expressed as mean ± SD. *p < 0.05, **p < 0.01, versus vehicle by Dunnett’s test. ^# p < 0.05, ^## p < 0.01, versus vehicle by the Steel test

The test system of assay [2] is IFN-α signaling (JAK1/Tyk2), Stat1 phosphorylation in hPBMCs. Briefly: cells. The following applies: Homo sapiens, 0.25 h, read-out: IC50, IFN-α cytokine signaling (JAK1/Tyk2). Here is the method: (§1) hPBMCs (3 × 10^6 cells/tube) were incubated with a test compound for 30 min at 37 °C, and then treated with IL-2 (100 ng/mL), IL-6 (100 ng/mL), IL-23 (100 ng/mL), IFN-α (100 ng/mL), or GM-CSF (1 ng/mL) for an additional 15 min. To terminate the stimulation, the cells were fixed with Fixation Buffer (BD Biosciences) for 10 min at 37 °C. The fixed cells were incubated with Perm Buffer II (BD Biosciences) for 30 min on ice and then incubated with fluorochrome-labeled anti-CD3, anti-CD4, or anti-phospho-Stat antibodies for 30 min at room temperature. The cytokine-induced Stat phosphorylation was analyzed and quantified using a Cytomics FC500 (Beckman Coulter Inc., Brea, CA). In the case of IL-23 stimulation, hPBMCs were precultured with 10 μg/mL phytohemagglutinin (PHA)-M (Sigma-Aldrich Co.) for 3 days to enhance their response to IL-23.
(§2) The phosphorylation levels of Stat5 (IL-2 and GM-CSF), Stat3 (IL-6 and IL-23), or Stat1 (IFN-α) in CD3^+CD4^+ cells (IL-2, IL-23, and IFN-α) or CD3^-CD4^+ cells (IL-6 and GM-CSF) were analyzed by flow cytometry. Data are presented as percentages of mean fluorescence intensity relative to vehicle (100 %) and non-stimulated control cells (0 %). Values are mean ± SEM. Three independent experiments were performed

The subject of assay [3] is IL-2 signaling (JAK1/JAK3), Stat5 phosphorylation in hPBMCs. Kind of assay: cells. Particulars: Homo sapiens, 0.25 h, read-out: IC50, IL-2 cytokine signaling (JAK1/JAK3). The protocol: as §1, §2
For assay [4], the system named is kinases in KinaseProfiler. Briefly: KinaseProfiler panel as a whole (selectivity for other kinases). In kind it is biochemical. Particulars: concentration of 1,000 nM. Here is the method:
[…]; The selectivity of JTE-052 for other kinases was assessed using KinaseProfiler™ (Millipore Co. Ltd.). […].

Assay [5] concerns IL-2-induced IFN-γ production. Kind of assay: IL-2-induced IFN-γ production in mice. In kind it is in vivo, DBA/1J mice. Particulars: Mus musculus, po. The protocol:
DBA/1J mice were dosed once via oral gavage with compounds. At 1 or 6 h after compound administration, the mice were injected intraperitoneally with 2 μg of recombinant mouse IL-2 and 10 μg of biotinylated anti-mouse IFN-γ capture antibody. After 6 h, the mice were euthanized, and blood was collected. Serum IFN-γ was quantified using a Mouse IFN-γ In Vivo Capture Assay Set (BD Biosciences).
After 1 or 6 h, they were injected with IL-2 and anti-mouse IFN-γ capture antibody. At 6 h after the injection, blood samples were collected, and the serum IFN-γ levels were measured.

The subject of assay [6] is rat collagen-induced arthritis model. Details: method as in PMID 15683847. The following applies: cited from earlier work.

pIC50: −log10 of the molar value. Structures can show the parent of a compound that is named as a salt.

On to `CN(Cc1cnc2nc(N)nc(N)c2n1)c1ccc(C(=O)N[C@@H](CCC(=O)O)C(=O)O)cc1` [MTX, Methotrexate hydrate], for which the “effect on hind paw swelling and joint inflammation, preventive administration” value in assay [1] (oral once daily from day 1, JTE-052 0.1, 1, 10 mg/kg) is given as “significantly inhibited these symptoms”. Further, the “effect on paw swelling / arthritis symptoms, therapeutic administration” value was “did not attenuate all of these symptoms” in assay [1] and “ineffective” in assay [1] (listed as methotrexate).
With `N#CC[C@H](C1CCCC1)n1cc(-c2ncnc3[nH]ccc23)cn1` [Ruxolitinib, Ruxolitinib phosphate, reference compound], the figures for the pIC50 in assay [2] and in assay [3] were 8.96 and 7.89, respectively.
Take `C[C@@H]1CCN(C(=O)CC#N)C[C@@H]1N(C)c1ncnc2[nH]ccc12` [Tofacitinib, tofacitinib citrate, reference compound]: the “inhibition of other kinases in KinaseProfiler” value in assay [4] is “did not inhibit any of the kinases”. For the same molecule, the 50% effective dose (ED50) came out at 1.1 mg/kg in assay [5] (dosed 1 h prior to IL-2 injection) and 13 mg/kg in assay [5] (dosed 6 h prior to IL-2 injection).
Turning to `C=CC[C@@H]1/C=C(\C)C[C@H](C)C[C@H](OC)[C@H]2O[C@@](O)(C(=O)C(=O)N3CCCC[C@H]3C(=O)O[C@H](/C(C)=C/[C@@H]3CC[C@@H](O)[C@H](OC)C3)[C@H](C)[C@@H](O)CC1=O)[C@H](C)C[C@@H]2OC` [tacrolimus], the “effect in rat collagen-induced arthritis model, administration after the onset of arthritis” value in assay [6] is reported as “had no inhibitory effects”.
